Data published in patent US10548899B2, “Quinazolinone and benzotriazinone compounds with cholinergic muscarinin M1 receptor positive allosteric modulator activity” (TAKEDA PHARMACEUTICAL COMPANY LIMITED, priority 2015, dated 2020).

Target: T1, human M1 receptor (hCHRM1) (Homo sapiens, UniProt P11229)
T1 construct: expressed in transfected cells; host or cells: CHO-K1
T1 sequence (P11229 1-460): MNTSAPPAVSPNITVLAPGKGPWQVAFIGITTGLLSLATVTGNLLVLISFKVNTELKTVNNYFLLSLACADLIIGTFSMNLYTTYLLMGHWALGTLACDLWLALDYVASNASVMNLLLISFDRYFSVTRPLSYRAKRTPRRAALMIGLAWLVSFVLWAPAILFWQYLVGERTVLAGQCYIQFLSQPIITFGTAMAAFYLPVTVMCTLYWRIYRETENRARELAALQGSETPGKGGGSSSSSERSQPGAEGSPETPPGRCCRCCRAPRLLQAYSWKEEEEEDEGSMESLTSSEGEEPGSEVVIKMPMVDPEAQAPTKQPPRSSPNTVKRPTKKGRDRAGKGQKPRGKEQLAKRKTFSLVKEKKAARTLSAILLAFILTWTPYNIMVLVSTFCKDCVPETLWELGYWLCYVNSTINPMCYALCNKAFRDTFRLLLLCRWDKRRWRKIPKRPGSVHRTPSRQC
Assay: Measurement of M1 receptor positive allosteric modulator (M1PAM) activity (calcium fluorescence, Fluo-4, FDSS)
Format: cell-based
Conditions: for activity (%) at 10 μM: 10 μM test compound, acetylcholine EC20 (final 0.8 nM) present, 100% = acetylcholine 1 μM, 0% = DMSO, CHO-K1 hCHRM1 cells; for EC50: inflection point of concentration-dependent curve, CHO-K1 cells stably expressing hCHRM1, in presence of acetylcholine at EC20 concentration (final 0.8 nM), read-out: IP value
Experimental: Measurement of M1 receptor positive allosteric modulator (M1PAM) activity
The activity of a test compound in the presence of acetylcholine at EC20 concentration (final concentration 0.8 nM), which affords an action corresponding to about 20% of the maximum activity, was measured as PAM activity. The method is as follows. CHO-K1 cells stably expressing a human M1 receptor (hCHRM1) were plated on a 384-well black clear bottom plate (BD Falcon) at 5,000 cells/well, and cultured in an incubator at 37° C., 5% CO2 for 1 day. The medium in the cell plate was removed, and assay buffer A containing a calcium indicator (Recording medium (DOJINDO LABORATORIES), 0.1% BSA (Wako Pure Chemical Industries, Ltd.), 2.5 μg/mL Fluo-4 AM (DOJINDO LABORATORIES), 0.08% Pluronic F127 (DOJINDO LABORATORIES) and 1.25 mM probenecid (DOJINDO LABORATORIES) were added at 30 μL/well. The cells were left standing in the incubator at 37° C., 5% CO2 for 30 min, and further left standing at room temperature for 30 min. A test compound prepared by diluting with assay buffer B (HESS (Invitrogen), 20 mM HEPES (Invitrogen), 0.1% BSA) containing 3.2 nM acetylcholine was added at 10 μL/well, and the fluorescence was measured by FDSS/μcell (Hamamatsu Photonics K.K.) for 1 min every for 1 second. With the definition that the amount of change in the fluorescence on addition of acetylcholine (final concentration 1 μM) is 100% and that on addition of DMSO instead of a test compound is 0%, the activity (%) of the test compound was calculated, and the inflection point in the concentration-dependent curve of the test compound was calculated as IP values.

Row | SMILES | activity (%) at 10 μM [%] | EC50 [nM]
1 | Cc1c(Cc2ccc(-c3cnn(C)c3)nc2)cc2c(=O)n(CC3CCCO3)nnc2c1C (centres unmarked) [Example 39, 7,8-dimethyl-6-((6-(1-methyl-1H-pyrazol-4-yl)pyridin-3-yl)methyl)-3-(tetrahydrofuran-2-ylmethyl)-1,2,3-benzotriazin-4(3H)-one] | 97 | 85
2 | Cc1c(Cc2ccc(-c3cn(C)nn3)cc2)cc2c(=O)n([C@H]3CCC[C@@H]3O)cnc2c1C (single isomer, unassigned) [Example 22, 3-(trans-2-hydroxycyclopentyl)-7,8-dimethyl-6-(4-(1-methyl-1H-1,2,3-triazol-4-yl)benzyl)quinazolin-4(3H)-one] | 95 | 79
3 | Cc1cc(-c2ccc(Cc3cc4c(=O)n([C@H]5CCC[C@@H]5O)cnc4c(C)c3C)cn2)ccn1 (relative stereo) [Example 12, 3-(trans-2-hydroxycyclopentyl)-7,8-dimethyl-6-((2′-methyl-2,4′-bipyridin-5-yl)methyl)quinazolin-4(3H)-one] | 99 | 39
4 | Cc1c(Cc2ccc(Cl)nc2)cc2c(=O)n([C@H]3CCCC[C@@H]3O)cnc2c1C (relative stereo) [Example 19, 6-((6-chloropyridin-3-yl)methyl)-3-(trans-2-hydroxycyclohexyl)-7,8-dimethylquinazolin-4(3H)-one] | 97 | 66
5 | Cc1ccc(Cc2cc3c(=O)n([C@H]4CCCC[C@@H]4O)cnc3c(C)c2C)cn1 (relative stereo) [Example 35, 3-(trans-2-hydroxycyclohexyl)-7,8-dimethyl-6-((6-methylpyridin-3-yl)methyl)quinazolin-4(3H)-one] | 96 | 41
6 | Cc1c(Cc2ccc(-n3cccn3)cc2)cc2c(=O)n([C@H]3COCC[C@@H]3O)cnc2c1F [Example 38, 8-fluoro-3-((3S,4S)-4-hydroxytetrahydro-2H-pyran-3-yl)-7-methyl-6-(4-(1H-pyrazol-1-yl)benzyl)quinazolin-4(3H)-one] | 100 | 17
7 | Cc1c(Cc2ccc(-c3cnn(C)c3)cc2)cc2c(=O)n([C@H]3CCC[C@@H]3O)cnc2c1C (relative stereo) [Example 17, 3-(trans-2-hydroxycyclopentyl)-7,8-dimethyl-6-(4-(1-methyl-1H-pyrazol-4-yl)benzyl)quinazolin-4(3H)-one] | 90 | 55
8 | COc1cc(Cc2ccc(-c3cnn(C)c3)cc2)cc2c(=O)n([C@H]3CCC[C@@H]3O)cnc12 (relative stereo) [Example 20, 3-(trans-2-hydroxycyclopentyl)-8-methoxy-6-(4-(1-methyl-1H-pyrazol-4-yl)benzyl)quinazolin-4(3H)-one] | 97 | 61

Now from value to compound:

Row | activity (%) at 10 μM [%] | EC50 [nM] | SMILES
9 | 94 | 4.8 | Cc1c(Cc2ccc(-c3cnn(C)c3)nc2)cc2c(=O)n([C@H]3CCCC[C@@H]3O)cnc2c1C [Example 59, 3-((1S,2S)-2-hydroxycyclohexyl)-7,8-dimethyl-6-((6-(1-methyl-1H-pyrazol-4-yl)pyridin-3-yl)methyl)quinazolin-4(3H)-one]
10 | 95 | 38 | Cc1c(Cc2ccc(-c3ccn(C)n3)cc2)cc2c(=O)n([C@H]3COCC[C@@H]3O)nnc2c1C [Example 47, 3-((3S,4S)-4-hydroxytetrahydro-2H-pyran-3-yl)-7,8-dimethyl-6-(4-(1-methyl-1H-pyrazol-3-yl)benzyl)-1,2,3-benzotriazin-4(3H)-one]
11 | 98 | 59 | Cc1cc2nnn([C@H]3COCC[C@@H]3O)c(=O)c2cc1Cc1ccc(-c2ccn(C)n2)cc1 [Example 48, 3-((3S,4S)-4-hydroxytetrahydro-2H-pyran-3-yl)-7-methyl-6-(4-(1-methyl-1H-pyrazol-3-yl)benzyl)-1,2,3-benzotriazin-4(3H)-one]
12 | 101 | 29 | Cc1c(Cc2ccc(-n3cccn3)cc2)cc2c(=O)n([C@H]3COCC[C@@H]3O)nnc2c1C [Example 41, 3-((3S,4S)-4-hydroxytetrahydro-2H-pyran-3-yl)-7,8-dimethyl-6-(4-(1H-pyrazol-1-yl)benzyl)-1,2,3-benzotriazin-4(3H)-one]
13 | 94 | 70 | Cc1c(Cc2ccc(-c3cn(C)nn3)cc2)cc2c(=O)n([C@H]3CCC[C@@H]3O)nnc2c1C (relative stereo) [Example 40, 3-(trans-2-hydroxycyclopentyl)-7,8-dimethyl-6-(4-(1-methyl-1H-1,2,3-triazol-4-yl)benzyl)-1,2,3-benzotriazin-4(3H)-one]
14 | 100 | 32 | Cc1c(Cc2ccc(-n3cccn3)nc2)cc2c(=O)n([C@H]3COCC[C@@H]3O)nnc2c1C [Example 44, 3-[(3S,4S)-4-hydroxytetrahydro-2H-pyran-3-yl]-7,8-dimethyl-6-{[6-(1H-pyrazol-1-yl)pyridin-3-yl]methyl}-1,2,3-benzotriazin-4(3H)-one]
15 | 96 | 23 | Cc1c(Cc2ccc(Cl)nc2)cc2c(=O)n([C@H]3CCCC[C@@H]3O)cnc2c1C [Example 54, 6-((6-chloropyridin-3-yl)methyl)-3-((1S,2S)-2-hydroxycyclohexyl)-7,8-dimethylquinazolin-4(3H)-one]
16 | 95 | 25 | Cc1c(Cc2ccc(-c3ccn(C)n3)nc2)cc2c(=O)n(CC3CCCO3)nnc2c1Cl (centres unmarked) [Example 45, 8-chloro-7-methyl-6-((6-(1-methyl-1H-pyrazol-3-yl)pyridin-3-yl)methyl)-3-(tetrahydrofuran-2-ylmethyl)1,2,3-benzotriazin-4(3H)-one]
